The target of one assay is T1, M1 muscarinic receptor (Homo sapiens, UniProt P11229).
T1 construct: expressed in transfected cells; host or cells: CHO (M1-CHO)
T1 sequence (P11229 1-460): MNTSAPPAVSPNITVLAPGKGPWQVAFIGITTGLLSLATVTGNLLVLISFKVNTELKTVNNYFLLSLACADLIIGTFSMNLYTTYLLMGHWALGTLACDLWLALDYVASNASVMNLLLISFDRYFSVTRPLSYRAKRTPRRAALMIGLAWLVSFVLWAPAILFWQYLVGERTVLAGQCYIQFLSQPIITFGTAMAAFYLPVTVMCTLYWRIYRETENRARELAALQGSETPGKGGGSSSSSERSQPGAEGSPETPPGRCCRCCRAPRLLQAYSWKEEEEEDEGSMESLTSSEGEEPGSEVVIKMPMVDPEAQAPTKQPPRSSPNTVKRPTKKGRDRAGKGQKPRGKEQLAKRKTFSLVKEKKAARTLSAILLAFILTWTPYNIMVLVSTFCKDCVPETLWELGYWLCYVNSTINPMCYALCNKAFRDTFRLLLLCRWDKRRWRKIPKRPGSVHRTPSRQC
The assay can be described thus: Functional mobilization of intracellular calcium (FLIPR), M1-CHO cells. Format: cell-based. As to conditions: for Emax: 100% efficacy is the maximum response obtained using Carbachol as a control; for M1 Activity: M1-CHO cells, FLIPR calcium mobilization. In short, it runs like this:
(§1)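 Calcium flux recorded 60 s (ex 488, em 540 nm) in dye-loaded M1- or M4-CHO cells in pH 7.4 buffer with 1 mM probenecid. Inhibition measured against carbachol EC80 after 15 min compound pre-incubation or co-addition; agonism measured by compound addition alone. Final DMSO 0.5%.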
In general terms: Calcium assays in cells follow changes in intracellular calcium, usually with a dye or a luminescent sensor.

The next assay concerns the target T2, M4 muscarinic receptor (Homo sapiens, UniProt P08173).
T2 construct: expressed in transfected cells; host or cells: CHO (M4-CHO)
T2 sequence (P08173 1-479): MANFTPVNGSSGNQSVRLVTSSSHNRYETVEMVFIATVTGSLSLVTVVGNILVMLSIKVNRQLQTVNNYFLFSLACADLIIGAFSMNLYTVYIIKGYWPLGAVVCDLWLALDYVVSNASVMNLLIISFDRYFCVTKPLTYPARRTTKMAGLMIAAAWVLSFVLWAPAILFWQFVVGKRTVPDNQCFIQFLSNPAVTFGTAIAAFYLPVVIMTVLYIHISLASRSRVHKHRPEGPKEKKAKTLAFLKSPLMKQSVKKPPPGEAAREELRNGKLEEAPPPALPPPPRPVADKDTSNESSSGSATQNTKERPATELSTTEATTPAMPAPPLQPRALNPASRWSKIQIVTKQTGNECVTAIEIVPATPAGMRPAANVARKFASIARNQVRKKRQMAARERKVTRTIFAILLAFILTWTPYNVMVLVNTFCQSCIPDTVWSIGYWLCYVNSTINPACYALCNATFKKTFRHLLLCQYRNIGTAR
The assay can be described thus: Functional mobilization of intracellular calcium (FLIPR), M4-CHO cells. Format: cell-based. The settings on record: for Emax: 100% efficacy is the maximum response obtained using Carbachol as a control; for M4 Activity: M4-CHO cells, FLIPR calcium mobilization. In short, it runs like this:
as §1

As usually defined, the Emax is the maximal effect, on the per cent scale that the assay sets.

Structures can show the parent of a compound that is named as a salt.

Consider `CCON=C1CCC(N2CCC3(CC2)CN(C(C)=O)Cc2ccccc23)CC1` (stereo not drawn) [compound 196, 1-(1′-(4-(ethoxyimino)cyclohexyl)-1H-spiro[isoquinoline-4,4′-piperidine]-2(3H)-yl)ethanone], for which, on M1 muscarinic receptor, the Emax was in the range of 25 to 100% and the “M1 Activity” value is “+++ (activity was measured to be less than 1.0 μM)”. Further, on M4 muscarinic receptor, the Emax lay within 25 to 100% and the “M4 Activity” value is given as “+++ (activity was measured to be less than 1.0 μM)”.

As for `CCOC(=O)N1C2CCC1CC(N1CCC3(CC1)CN(C(C)=O)Cc1ccccc13)C2` (stereo not drawn) [compound 197, ethyl 3-(2-acetyl-2,3-dihydro-1H-spiro[isoquinoline-4,4′-piperidine]-1′-yl)-8-azabicyclo[3.2.1]octane-8-carboxylate], at M1 muscarinic receptor, the Emax lay within 25 to 100% and the “M1 Activity” value is “+++ (activity was measured to be less than 1.0 μM)”. At M4 muscarinic receptor, the Emax fell in the range of 25 to 100% and the “M4 Activity” value is reported as “+++ (activity was measured to be less than 1.0 μM)”.

Consider `CCOC(=O)N1CCC(CN2CCC3(CC2)CN(C(C)=O)Cc2ccccc23)CC1` [compound 198, Ethyl 4-((2-acetyl-2,3-dihydro-1H-spiro[isoquinoline-4,4′-piperidine]-1′-yl)methyl)piperidine-1-carboxylate hydrochloride], for which, on M1 muscarinic receptor, the Emax fell in the range of 25 to 100% and the “M1 Activity” value is listed as “+++ (activity was measured to be less than 1.0 μM)”. Besides, on M4 muscarinic receptor, the Emax lay within 25 to 100% and the “M4 Activity” value is listed as “+++ (activity was measured to be less than 1.0 μM)”.

On to `CC(=O)N1Cc2ccccc2C2(CCN(Cc3ccccc3F)CC2)C1` [compound 199], for which, on M1 muscarinic receptor, the Emax was below 25% and the “M1 Activity” value is reported as “+ (activity was measured to be greater than 5.0 μM)”. On M4 muscarinic receptor, the Emax fell in the range of 25 to 100% and the “M4 Activity” value is given as “+ (activity was measured to be greater than 5.0 μM)”.

With `CCOC(=O)N1C2CCC1CC(N1CCC3(CC1)CN(S(=O)(=O)c1sc(NC(C)=O)nc1C)Cc1ccccc13)C2` (stereo not drawn) [compound 200], at M1 muscarinic receptor, the Emax was in the range of 25 to 100% and the “M1 Activity” value is “+++ (activity was measured to be less than 1.0 μM)”. In addition, at M4 muscarinic receptor, the maximal response (Emax) lay within 25 to 100% and the “M4 Activity” value is recorded as “+++ (activity was measured to be less than 1.0 μM)”.

With `CCOC(=O)N1C2CCC1CC(N1CCC3(CC1)CN(S(C)(=O)=O)Cc1ccccc13)C2` (stereo not drawn) [compound 201], at M1 muscarinic receptor, the Emax lay within 25 to 100% and the “M1 Activity” value was “+++ (activity was measured to be less than 1.0 μM)”. Moreover, on M4 muscarinic receptor, the maximal response (Emax) was in the range of 25 to 100% and the “M4 Activity” value is given as “+++ (activity was measured to be less than 1.0 μM)”.

`CCOC(=O)N1CCC(N2CCC3(CC2)CN(C(=O)OC2CCC2)Cc2ccccc23)CC1` [compound 202]: at M1 muscarinic receptor, the Emax lay in the range of 25 to 100% and the “M1 Activity” value is “+++ (activity was measured to be less than 1.0 μM)”. In addition, at M4 muscarinic receptor, the Emax fell in the range of 25 to 100% and the “M4 Activity” value is on record as “+++ (activity was measured to be less than 1.0 μM)”.

Regarding `CCOC(=O)N1C2CCC1CC(N1CCC3(CC1)CN(C(=O)c1sc(C)nc1C)Cc1ccccc13)C2` (stereo not drawn) [compound 203], on M1 muscarinic receptor, the Emax is 25 to 100% and the “M1 Activity” value is listed as “+++ (activity was measured to be less than 1.0 μM)”. For the same compound, on M4 muscarinic receptor, the Emax is 25 to 100% and the “M4 Activity” value is on record as “+++ (activity was measured to be less than 1.0 μM)”.

In the case of `CCOC(=O)N1CCC(N2CCC3(CC2)CN(C(=O)N(C)C)Cc2ccccc23)CC1` [compound 204], on M1 muscarinic receptor, the Emax was 25 to 100% and the “M1 Activity” value is “+++ (activity was measured to be less than 1.0 μM)”. Moreover, at M4 muscarinic receptor, the Emax is 25 to 100% and the “M4 Activity” value is on record as “+++ (activity was measured to be less than 1.0 μM)”.

Source of the values: US7863449B2, “Modulators of muscarinic receptors” (Vertex Pharmaceuticals Incorporated, priority 2004, dated 2011).
